pIC50, pKi: −log10 of the molar value.
How the values were obtained:
[1] = target: T1, 5-hydroxytryptamine receptor 2A (Homo sapiens, UniProt P28223); assay: Displacement of [3H]ketanserin from postmortem human brain membrane homogenate 5-HT2A receptor incubated for 120 mins by microbeta liquid scintillation counter analysis; format: cell membranes
[2] = target: T1, 5-hydroxytryptamine receptor 2A; assay: Inverse agonist activity at human postmortem human brain membrane 5-HT2A receptor assessed as […] in [35S]GTPgammaS binding by liquid scintillation spectrometry analysis; format: functional, cell membranes
[3] = target: T1, 5-hydroxytryptamine receptor 2A; assay: Displacement of [3H]ketanserin from human 5-HT2A receptor incubated for 120 mins by microbeta liquid scintillation counter analysis
[4] = target: T1, 5-hydroxytryptamine receptor 2A; assay: Inverse agonist activity at human 5-HT2A receptor assessed as […] in [35S]GTPgammaS binding by liquid scintillation spectrometry analysis; format: functional
[5] = target: T1, 5-hydroxytryptamine receptor 2A; assay: Inverse agonist activity at human prefrontal cortex 5-HT2A receptor assessed as […] in [35S]GTPgammaS binding by liquid scintillation spectrometry analysis; format: functional, tissue-based
[6] = target: T1, 5-hydroxytryptamine receptor 2A; assay: Inverse agonist activity at human 5-HT2A receptor expressed in cell membrane assessed as […] in [35S]GTPgammaS binding by liquid scintillation spectrometry analysis; format: functional, cell membranes
[7] = target: T1, 5-hydroxytryptamine receptor 2A; assay: Displacement of [3H]ketanserin from human brain cortex 5-HT2A receptor by Cheng-Prusoff equation analysis; format: tissue-based
[8] = target: T1, 5-hydroxytryptamine receptor 2A; assay: Displacement of [3H]ketanserin human recombinant 5-HT2A receptor by Cheng-Prusoff equation analysis

T1 sequence (P28223 whole entry): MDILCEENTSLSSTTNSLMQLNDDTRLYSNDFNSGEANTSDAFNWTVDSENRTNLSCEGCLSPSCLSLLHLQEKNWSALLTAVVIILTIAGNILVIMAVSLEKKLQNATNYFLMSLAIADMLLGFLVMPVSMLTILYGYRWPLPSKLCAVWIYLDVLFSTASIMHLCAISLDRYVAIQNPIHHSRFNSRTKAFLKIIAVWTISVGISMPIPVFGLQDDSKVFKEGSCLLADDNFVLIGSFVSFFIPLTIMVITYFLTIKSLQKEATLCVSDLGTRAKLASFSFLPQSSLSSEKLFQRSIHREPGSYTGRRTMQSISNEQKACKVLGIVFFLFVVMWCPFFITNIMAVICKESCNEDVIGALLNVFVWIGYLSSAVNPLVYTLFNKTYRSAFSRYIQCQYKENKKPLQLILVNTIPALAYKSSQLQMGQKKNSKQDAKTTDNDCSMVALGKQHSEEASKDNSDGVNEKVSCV

pKi [1]	pIC50 [2]	pKi [3]	pIC50 [4]	pIC50 [5]	pIC50 [6]	pKi [7]	pKi [8]	SMILES
8.30	9.50	9.80	9.80	7.90	7.10			CC1COc2ccc(CNC(=O)N(Cc3ccc(F)cc3)C3CCN(C)CC3)cc21 (stereo not given)
9.30	9.60	10.50	9.60	7.90	7.10			CC1Cc2cc(CNC(=O)N(Cc3ccc(F)cc3)C3CCN(C)CC3)ccc2O1 (stereo not given)
10.30	10.30	11.60	10.20	7.90	7.10	10.22	11.52	CN1CCC(N(Cc2ccc(F)cc2)C(=O)NCc2ccc3c(c2)CC(C)(C)O3)CC1

Reference: ChEMBL document CHEMBL5331125, “Design, Synthesis, Molecular Docking, and Biological Evaluation of Novel Pimavanserin-Based Analogues as Potential Serotonin 5-HT2A Receptor Inverse Agonists” (J Med Chem, 2023)
